Reference: patent US5219884A, “Immunosuppressant” (Taito Co., Ltd., priority 1990, dated 1993)

Experiments:
[1] = tested on: interleukin 6 (IL6) response of mouse spleen cells; test: suppression of interleukin 6 (IL6) response of mouse spleen cells (plaque assay); type: cell-based
Protocol: The spleen was resected from 8-week-old male BALB/c mice, and single cell suspension in the serum-free RPMI1640 culture medium was prepared, and thereafter cell pellets were obtained by centrifugation (1000 rpm, 5 minutes) of the suspension. Then a mixture of 9 parts of a 0.16 M ammonium chloride solution and 1 part of a 0.17 M Tris solution (pH 7.65) was added to lyse red blood cells, and the suspension was washed three times with the serum-free RPMI1640 culture medium. The obtained cells were suspended to the concentration of 5×10^6 cells/ml in the RPMI1640 culture medium supplemented with 20% FCS, 5×10^-5 M 2-mercaptoethanol, 2×10^-3 M L glutamine, 1×10^-3 sodium pyruvate and 25% of the supernatant of the culture of T24 human bladder carcinoma cell line as a source of interluekin 6. One hundred μl of this cell suspension and 100 μl of the test substance were mixed in each well of 96-well microculture plates, and cultured at 37° C. in an atmosphere of 5% carbon dioxide for 72 hours. After termination of the culture, 50 μl of the cell suspension was collected from each well. Three hundred μl of the RPMI1640 culture medium supplemented with 0.7% agarose gel, 20 μl of physiological saline containing 40% protein A-bound sheep red blood cells and 20 μl of 300-fold dilution of anti-mouse IgG anti-serum diluted in physiological saline were mixed in a test tube, and extended uniformly on Rohduck plates (Falcon Co. 1034). After gel formation by keeping still at room temperature for a few minutes, the plates were cultured at 37° C. in an atmosphere of 5% carbon dioxide for about 4 hours.
Three hundred μl of a 40-fold dilution of guinea pig complement in the serum-free RPMI1640 culture medium was added to each plate, which was then incubated for further 2 hours. The number of plaques formed was counted under stereoscopic microscope.
SD in the Table means standard deviation. The percent suppression (%) was calculated by the following formula. [formula]

[2] = tested on: interleukin 1 (IL1) response of mouse thymocytes; test: suppression of interleukin 1 (IL1) response of mouse thymocytes; type: cell-based; conditions: PHA + IL1
Protocol: The thymus was resected from 7-week-old male C3H/HeN mice, and single cell suspension was prepared using the serum-free RPMI1640 culture medium. After three times washing with the medium, the cells were suspended to a concentration of 1.5×10^7 cells/ml in the RPMI1640 culture medium supplemented with 20% fetal calf serum, 5×10^-5 M 2-mercaptoethanol, 2×10^-3 M L-glutamine, 1×10^-3 M sodium pyruvate, 1 μg/ml of phytohemagglutinin (PHA, Wellcome Co., HA16/17) and 2 units/ml of human ultrapure interleukin 1 (Genzyme Co., GUPi-1). One hundred μl of this cell suspension and 100 μl of the solution containing ISP-I were mixed in each well of the 96-well flat-bottomed microculture plate, cultured at 37° C. in an atmosphere of 5% carbon dioxide for 66 hours, and cultured for further 6 hours after addition of 0.5 μCi/well of ^3 H-thymidine. After termination of the culture, the cells in each well were harvested onto a filter by a multiple cell harvester, and the radioactivity incorporated into the cells was measured by liquid scintillation method using a toluene-base scintillator.
In the table, SD means standard deviation. The percent suppression (%) was calculated by the following formulation. [formula]

[3] = tested on: allo-reactive cytotoxic T cells (EL4 target cells); test: suppression of allo-reactive cytotoxic T cells induced by immunization of mouse with allogenic cells; type: in vivo; conditions: 0.1 mg/kg/day i.p., 6 times
Protocol: Male BALB/c mice were immunized with spleen cells of C57BL/6 mice (5×10^7 cells/mouse, intraperitoneal administration), and ISP-I in Example 1 was administered intraperitoneally 6 times at the doses of 0.1 mg/kg/day from the next day of immunization. Eight days after immunization, the spleen was resected to prepare effector cells, with which the ^51 Cr release test was carried out as in Experimental Example 3, using EL4 cells as the target cells to measure the cytotoxic activity.

[4] = tested on: IL3-dependent mouse cell line FDC-P2; test: suppression of IL3-induced proliferation of FDC-P2; type: cell-based; conditions: for inhibition at 0.001 µg/mL / inhibition at 0.01 µg/mL / inhibition at 0.1 µg/mL / inhibition at 1 µg/mL / inhibition at 10 µg/mL: Mus musculus, 24 h
Protocol: IL3-dependent mouse cell line FDC-P2 cells were suspended in the RPMI1640 culture medium supplemented with 10% FCS to the concentration of 2×10^5 cells/ml. One hundred μl of the suspension and 50 μl of the supernatant of the culture of mouse luekemia cells WEHI3 containing IL3 were added to each well of 96-well microculture plates in which 100 μl of the test substance had been placed. After culturing at 37° C. in an atmosphere of 5% carbon dioxide for 20 hours, 0.5 μCi/well of ^3 H-thymidine was added, and cultured for 4 hours under the same conditions. After termination of the culture, the cells were harvested by a cell harvester, and the radioactivity incorporated into the cells was determined by a liquid scintillation counter, and was used as an index of the IL3-dependent proliferation.

SMILES | 3H-thymidine uptake ([4]; 0.001 μg/ml) | 3H-thymidine uptake ([4]; 0.01 μg/ml) | 3H-thymidine uptake ([4]; 0.1 μg/ml) | 3H-thymidine uptake ([4]; 1 μg/ml) | 3H-thymidine uptake ([4]; 10 μg/ml) | inhibition at 0.001 µg/mL ([4]; 0.001 μg/ml) | inhibition at 0.01 µg/mL ([4]; 0.01 μg/ml) | inhibition at 0.1 µg/mL ([4]; 0.1 μg/ml) | inhibition at 1 µg/mL ([4]; 1 μg/ml) | inhibition at 10 µg/mL ([4]; 10 μg/ml) | other results
CCCCCCC(=O)CCCCCC/C=C/CC(O)C(O)C(N)(CO)C(=O)O (centres unmarked) [Example 1] | 6858 cpm | 6572 cpm | 5203 cpm | 5029 cpm | 2750 cpm | 21.5% | 25.7% | 45.9% | 48.5% | 82.1% | Number of plaque ([1]; 0.002 μg/ml): 130 ± 4 plaque/1 × 10^6 cells ± SD; Number of plaque ([1]; 0.02 μg/ml): 108 ± 10 plaque/1 × 10^6 cells ± SD; Number of plaque ([1]; 0.2 μg/ml): 78 ± 6 plaque/1 × 10^6 cells ± SD; Number of plaque ([1]; 2 μg/ml): 60 ± 8 plaque/1 × 10^6 cells ± SD; inhibition at 0.002 µg/mL ([1]; Mus musculus, 72 h, 0.002 μg/ml): 39.2%; inhibition at 0.02 µg/mL ([1]; Mus musculus, 72 h, 0.02 μg/ml): 50.5%; inhibition at 0.2 µg/mL ([1]; Mus musculus, 72 h, 0.2 μg/ml): 66%; inhibition at 2 µg/mL ([1]; Mus musculus, 72 h, 2 μg/ml): 75.3%; inhibition at 0.2 µg/mL ([2]; Mus musculus, Thymocyte, 72 h, 0.2 μg/ml): 83.9%; inhibition at 2 µg/mL ([2]; Mus musculus, Thymocyte, 72 h, 2 μg/ml): 91.8%; 3H-thymidine uptake ([2]; 0.2 μg/ml): 4646 ± 826 cpm ± SD; 3H-thymidine uptake ([2]; 2 μg/ml): 3973 ± 39 cpm ± SD; Amount of 51Cr release ([3]; effector:target 25:1): 1046 cpm; Cytotoxic activity ([3]; effector:target 25:1): 5%; Amount of 51Cr release ([3]; effector:target 50:1): 1258 cpm; Cytotoxic activity ([3]; effector:target 50:1): 8%; Amount of 51Cr release ([3]; effector:target 100:1): 1543 cpm; Cytotoxic activity ([3]; effector:target 100:1): 13%
CCCCCCC(=O)CCCCCC/C=C/CC1OC(=O)C(N)(CO)C1O (centres unmarked) [Example 4] | 7754 cpm | 6557 cpm | 5861 cpm | 4922 cpm | 2902 cpm | 8.3% | 25.9% | 36.2% | 50.1% | 79.9% | –
